The target of one series is T1, hNav1.1 (Homo sapiens, UniProt P35498).
T1 construct: host or cells: HEK293
Kind of series: automated whole-cell patch clamp (QPatch 16X), HEK293-hNav1.1. Format: cell-based. The conditions noted are these: HEK293 cells stably expressing human channel; read-out: IC50 Nav1.1. Background: Patch clamp records ionic current or voltage across a cell membrane.

In a further series the target is T2, hNav1.2 (Homo sapiens, UniProt Q99250).
T2 construct: host or cells: HEK293
The experiment in a line: automated whole-cell patch clamp (QPatch 16X), HEK293-hNav1.2. Format: cell-based. The conditions noted are these: HEK293 cells stably expressing human channel; read-out: IC50 Nav1.2.

The target of another series is T3, hNav1.3 (Homo sapiens, UniProt Q9NY46).
T3 construct: host or cells: HEK293
The experiment in a line: automated whole-cell patch clamp (QPatch 16X), HEK293-hNav1.3. The class given is cell-based. To be noted: HEK293 cells stably expressing human channel; read-out: IC50 Nav1.3.

The next series addresses T4, hNav1.4 (Homo sapiens, UniProt P35499).
T4 construct: host or cells: HEK293
Kind of series: automated whole-cell patch clamp (QPatch 16X), HEK293-hNav1.4. Format: cell-based. To be noted: HEK293 cells stably expressing human channel; read-out: IC50 Nav1.4.

In a further series the target is T5, hNav1.5 (Homo sapiens, UniProt Q14524).
T5 construct: host or cells: HEK293
The experiment in a line: automated whole-cell patch clamp (QPatch 16X), HEK293-hNav1.5. Format: cell-based. To be noted: HEK293 cells stably expressing human channel; read-out: IC50 Nav1.5.

The target in another series is T6, hNav1.6 (Homo sapiens, UniProt Q9UQD0).
T6 construct: host or cells: HEK293
Kind of series: automated whole-cell patch clamp (QPatch 16X), HEK293-hNav1.6. The class given is cell-based. To be noted: HEK293 cells stably expressing human channel; read-out: IC50 Nav1.6.

The next series addresses T7, hNav1.7 (Homo sapiens, UniProt Q15858).
T7 construct: host or cells: HEK293
The experiment in a line: automated whole-cell patch clamp (QPatch 16X), HEK293-hNav1.7. The class given is cell-based. To be noted: HEK293 cells stably expressing human channel; read-out: IC50 Nav1.7.

Series [1] relates to mouse sciatic nerves. The experiment in a line: epifluorescence imaging (IVIS Spectrum) of sciatic nerves and organs 30 min after injection. The class given is in vivo. The conditions noted are these: 30 min. The procedure: Animal Model. Female athymic nude mice (4-8 week-old, athymic-Nude (outbred) (Stock #: 088; Envigo, USA) were allowed to acclimatize at the Memorial Sloan Kettering Cancer Center (MSK) vivarium for 1 week with ad libitum food and water prior to the experimental procedure. For imaging experiments, animals were sacrificed 30 min post-tail vein injection of Hs1a-FL, Hs1a/Hs1a-FL, Hsp1a-FL, Hsp1a/Hsp1a-FL, or PBS. All animal experiments were performed in accordance with institutional guidelines and approved by the IACUC of MSK, following NIH guidelines for animal welfare.
Epifluorescence Imaging. Animals were intravenously injected with Hsp1a-FL (7 nmol, 68 μM of Hsp1a-FL in 100 μL of PBS, n=9), or Hs1a-FL (4 nmol, 45 μM of Hs1a-FL in 100 μL of PBS, n=3). To assess the specificity of the Hsp1a-FL or Hs1a-FL accumulation, animals were injected with a combination of Hsp1a and Hsp1a-FL (Hsp1a-FL, 68 μM, 7 nmol and Hsp1a 204 μM, 21 nmol in 100 μL PBS, n=9), Hs1a and Hs1a-FL (Hs1a-FL, 45 μM, 4 nmol and Hs1a, 120 μM, 12 nmol in 100 μL PBS, n=3) or PBS (n=9). Animals were sacrificed 30 min post-injection and epifluorescence images obtained. Epifluorescence images of the right sciatic nerve (RSN) and the left sciatic nerve (LSN) were obtained in situ. Epifluorescence of the biodistribution of the peptides in excited RSN, LSN, muscle, heart, kidney, liver, and brain were acquired with IVIS Spectrum (PerkinElmer) using a predefined GFP filterset (e.g., excitation=465/30 nm, emission=520-580 nm) based on the particular fluorophore employed in the compounds. Autofluorescence was removed through spectral unmixing. Semiquantitative analysis of the Hsp1a-FL or Hs1a-FL signal was conducted by measuring the average radiant efficiency (in units of unit [p/s/cm^2/sr]/[μW/cm^2]) in regions of interest (ROIs) that were placed on all resected organs under white light guidance.

In series [2] the test system is mouse sciatic nerves. Kind of series: confocal microscopy / histology of sciatic nerve sections after injection. Format: in vivo. To be noted: 30 min. The procedure:
Confocal Microscopy. 5 or 10 μm cryosections of OCT-embedded sciatic nerve tissues from mice intravenously injected with Hsp1a-FL (7 nmol, 68 μM of Hsp1a-FL in 100 μL of PBS), Hsp1a/Hsp1a-FL (Hsp1a-FL, 68 μM, 7 nmol, and Hsp1a 204 μM, 21 nmol in 100 μL PBS), Hs1a-FL (4 nmol, 45 μM of Hs1a-FL in 100 μL of PBS), with the block Hs1a/Hs1a-FL (Hs1a-FL, 45 μM, 4 nmol and Hs1a 120 μM, 12 nmol in 100 μL PBS) or PBS were used to determine the distribution and localization of fluorescently-tagged peptide. Animal organs were incubated with Hoechst 33342 (blue, 20 μM, 1 nmol in 50 μL of PBS) to counterstain nuclei before embedding in Mowiol mounting medium. Fresh tissue samples were counterstained with 33342 (blue, 20 μM, 1 nmol in 50 μL of PBS) up to 90 min post-mortem and placed directly on a microscope slide for imaging.

For a further series, the target named is hERG (Homo sapiens, UniProt Q12809). The experiment in a line: Hs1a off-target voltage-gated potassium channel, hERG. The class given is cell-based. The procedure:
Hs1a was isolated from the venom of the Chinese bird spider, Haplopelma schmidti. To assess the selectivity of Hs1a for Nav channel subtypes, Hs1a was tested on HEK cells stably transfected with human Nav1.1-Nav1.7 channels using automated patch clamp techniques. […] The IC50 value for hNav1.7 obtained in mammalian cells correlates with the IC50 obtained by two-electrode voltage clamp on hNav1.7 expressed in X. laevis oocytes. The selectivity of Hs1a for off-target voltage-gated calcium and potassium channels were also tested.

The mark [3] stands for this setting: 4 nmol plus 12 nmol unmodified Hs1a.

pIC50: −log10 of the molar value. A value given as a limit tells only on which side of the number the result lay.

T5 sequence (Q14524 whole entry): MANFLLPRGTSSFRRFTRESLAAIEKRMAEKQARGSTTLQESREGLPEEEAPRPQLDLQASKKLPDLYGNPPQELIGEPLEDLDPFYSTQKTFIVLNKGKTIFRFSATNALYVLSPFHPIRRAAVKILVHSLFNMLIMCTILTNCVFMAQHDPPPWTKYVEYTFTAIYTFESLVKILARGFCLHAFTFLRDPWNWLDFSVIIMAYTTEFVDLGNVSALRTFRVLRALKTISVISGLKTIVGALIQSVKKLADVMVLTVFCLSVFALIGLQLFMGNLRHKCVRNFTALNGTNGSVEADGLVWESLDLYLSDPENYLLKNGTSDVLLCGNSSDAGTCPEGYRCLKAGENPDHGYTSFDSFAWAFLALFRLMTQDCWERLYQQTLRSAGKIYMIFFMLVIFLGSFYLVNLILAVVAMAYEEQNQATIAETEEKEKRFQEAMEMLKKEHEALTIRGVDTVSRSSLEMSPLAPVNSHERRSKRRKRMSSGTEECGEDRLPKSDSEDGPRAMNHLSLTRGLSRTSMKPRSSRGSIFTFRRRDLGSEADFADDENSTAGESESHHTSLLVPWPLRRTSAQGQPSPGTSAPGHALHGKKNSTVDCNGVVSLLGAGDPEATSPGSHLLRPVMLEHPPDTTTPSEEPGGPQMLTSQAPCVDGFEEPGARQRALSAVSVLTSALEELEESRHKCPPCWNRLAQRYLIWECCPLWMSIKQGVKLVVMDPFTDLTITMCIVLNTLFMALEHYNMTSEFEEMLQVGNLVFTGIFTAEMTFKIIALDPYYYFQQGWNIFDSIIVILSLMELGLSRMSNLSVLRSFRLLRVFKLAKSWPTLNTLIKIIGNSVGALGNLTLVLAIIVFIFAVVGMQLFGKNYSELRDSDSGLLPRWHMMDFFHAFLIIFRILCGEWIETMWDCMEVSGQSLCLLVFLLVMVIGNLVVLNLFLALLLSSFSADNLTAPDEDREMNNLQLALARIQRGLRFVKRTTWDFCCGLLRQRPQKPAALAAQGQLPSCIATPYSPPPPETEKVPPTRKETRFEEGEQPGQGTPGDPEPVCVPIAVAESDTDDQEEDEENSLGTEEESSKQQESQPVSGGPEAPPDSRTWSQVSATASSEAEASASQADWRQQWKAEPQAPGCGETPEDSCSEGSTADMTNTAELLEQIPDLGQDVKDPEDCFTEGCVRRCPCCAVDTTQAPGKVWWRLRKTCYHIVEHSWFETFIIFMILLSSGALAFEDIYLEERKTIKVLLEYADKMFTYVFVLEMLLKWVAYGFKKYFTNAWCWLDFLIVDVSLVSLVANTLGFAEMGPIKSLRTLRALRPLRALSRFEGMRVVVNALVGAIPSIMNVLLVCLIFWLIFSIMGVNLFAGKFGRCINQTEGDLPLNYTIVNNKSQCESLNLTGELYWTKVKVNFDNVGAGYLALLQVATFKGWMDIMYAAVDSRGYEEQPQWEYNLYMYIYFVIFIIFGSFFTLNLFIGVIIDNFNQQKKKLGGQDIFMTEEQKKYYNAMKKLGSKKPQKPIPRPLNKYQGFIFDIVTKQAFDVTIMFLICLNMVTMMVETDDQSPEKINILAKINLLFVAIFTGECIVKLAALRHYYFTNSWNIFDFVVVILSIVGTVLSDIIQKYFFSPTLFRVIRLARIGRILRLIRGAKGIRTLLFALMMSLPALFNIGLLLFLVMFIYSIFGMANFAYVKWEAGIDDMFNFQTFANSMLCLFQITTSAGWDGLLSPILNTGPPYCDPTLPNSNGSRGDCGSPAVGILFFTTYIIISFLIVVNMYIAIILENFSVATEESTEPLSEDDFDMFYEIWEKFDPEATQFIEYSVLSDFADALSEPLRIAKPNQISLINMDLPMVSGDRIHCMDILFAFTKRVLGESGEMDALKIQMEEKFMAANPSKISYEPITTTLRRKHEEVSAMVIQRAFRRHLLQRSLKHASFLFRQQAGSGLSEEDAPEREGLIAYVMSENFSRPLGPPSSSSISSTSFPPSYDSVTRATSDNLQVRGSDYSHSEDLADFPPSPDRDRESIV
T7 sequence (Q15858 whole entry): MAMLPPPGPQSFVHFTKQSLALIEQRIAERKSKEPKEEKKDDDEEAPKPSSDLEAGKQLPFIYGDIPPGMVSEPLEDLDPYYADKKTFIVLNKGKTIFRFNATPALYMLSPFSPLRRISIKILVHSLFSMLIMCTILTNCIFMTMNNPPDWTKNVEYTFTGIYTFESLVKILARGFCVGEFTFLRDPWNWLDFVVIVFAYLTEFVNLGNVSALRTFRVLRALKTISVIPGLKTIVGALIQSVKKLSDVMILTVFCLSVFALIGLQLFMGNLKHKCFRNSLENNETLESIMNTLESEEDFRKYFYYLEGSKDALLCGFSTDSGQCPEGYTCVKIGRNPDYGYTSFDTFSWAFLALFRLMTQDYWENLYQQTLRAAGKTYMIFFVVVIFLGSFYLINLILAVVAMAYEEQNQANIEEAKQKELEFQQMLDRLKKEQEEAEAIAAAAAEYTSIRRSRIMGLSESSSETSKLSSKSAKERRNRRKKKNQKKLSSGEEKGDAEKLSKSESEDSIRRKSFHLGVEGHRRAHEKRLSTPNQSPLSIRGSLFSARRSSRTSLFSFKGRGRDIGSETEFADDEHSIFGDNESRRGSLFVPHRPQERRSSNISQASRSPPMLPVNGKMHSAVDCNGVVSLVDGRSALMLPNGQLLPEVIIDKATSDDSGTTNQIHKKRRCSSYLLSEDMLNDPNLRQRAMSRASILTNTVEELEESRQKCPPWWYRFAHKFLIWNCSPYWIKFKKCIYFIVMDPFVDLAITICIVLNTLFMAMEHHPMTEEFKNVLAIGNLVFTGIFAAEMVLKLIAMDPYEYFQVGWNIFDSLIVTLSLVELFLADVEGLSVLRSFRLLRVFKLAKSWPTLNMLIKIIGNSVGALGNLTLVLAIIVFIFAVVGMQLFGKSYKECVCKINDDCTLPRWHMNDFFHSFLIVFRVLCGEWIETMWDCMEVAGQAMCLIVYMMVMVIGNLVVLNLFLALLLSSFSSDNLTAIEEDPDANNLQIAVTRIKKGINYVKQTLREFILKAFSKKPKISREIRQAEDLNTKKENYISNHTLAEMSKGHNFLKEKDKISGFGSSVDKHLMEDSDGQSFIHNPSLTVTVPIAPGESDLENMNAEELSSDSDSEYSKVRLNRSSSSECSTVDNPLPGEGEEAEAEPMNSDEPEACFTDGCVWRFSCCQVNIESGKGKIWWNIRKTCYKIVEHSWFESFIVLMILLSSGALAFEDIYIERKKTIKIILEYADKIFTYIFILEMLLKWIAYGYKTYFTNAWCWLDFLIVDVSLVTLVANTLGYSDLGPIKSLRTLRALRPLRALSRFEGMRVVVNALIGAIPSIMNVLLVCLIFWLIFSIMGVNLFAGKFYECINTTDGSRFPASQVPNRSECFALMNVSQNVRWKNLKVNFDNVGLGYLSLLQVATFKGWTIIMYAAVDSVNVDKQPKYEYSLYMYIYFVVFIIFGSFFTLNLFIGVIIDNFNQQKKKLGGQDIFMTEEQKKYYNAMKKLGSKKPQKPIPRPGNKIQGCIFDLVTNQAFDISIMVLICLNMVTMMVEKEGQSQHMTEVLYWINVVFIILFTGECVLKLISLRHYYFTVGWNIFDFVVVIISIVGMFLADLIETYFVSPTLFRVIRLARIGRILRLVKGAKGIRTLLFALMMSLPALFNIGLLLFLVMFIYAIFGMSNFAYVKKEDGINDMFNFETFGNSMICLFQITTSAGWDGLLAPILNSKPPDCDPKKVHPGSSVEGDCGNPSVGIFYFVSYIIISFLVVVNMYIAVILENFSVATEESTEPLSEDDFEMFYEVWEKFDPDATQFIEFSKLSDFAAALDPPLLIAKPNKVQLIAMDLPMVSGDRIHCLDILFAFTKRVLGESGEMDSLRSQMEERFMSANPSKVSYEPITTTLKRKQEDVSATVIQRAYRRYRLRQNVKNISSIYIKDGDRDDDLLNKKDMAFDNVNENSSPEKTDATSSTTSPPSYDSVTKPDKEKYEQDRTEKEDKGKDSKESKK
T7 sequence (Q07699 19-218, further chain): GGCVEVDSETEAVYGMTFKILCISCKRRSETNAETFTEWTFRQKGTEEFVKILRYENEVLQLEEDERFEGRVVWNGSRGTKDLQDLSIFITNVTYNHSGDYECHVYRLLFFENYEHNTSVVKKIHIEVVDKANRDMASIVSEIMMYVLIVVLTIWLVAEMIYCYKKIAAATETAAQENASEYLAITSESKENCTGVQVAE

A word on the pIC50: it is the IC50 on a negative log10 scale, so that one unit is a factor of ten. Regarding `CC(C)C[C@H](NC(=O)[C@H](CCCCN)NC(=O)CNC(=O)[C@H](CCCCN)NC(=O)[C@@H]1CSSC[C@@H]2NC(=O)[C@H](CCCCN)NC(=O)[C@H](CC(=O)O)NC(=O)[C@H](CC(N)=O)NC(=O)[C@H](CCCCNC(=O)CCCCC[N+]3=C(/C=C/C4=CC(=C/C=C5/N(C)c6ccc7ccccc7c6C5(C)C)/CCC4)C(C)(C)c4c3ccc3ccccc43)NC(=O)[C@@H]3CCCN3C(=O)[C@H](CC(N)=O)NC(=O)[C@@H]3CSSC[C@H](NC(=O)[C@H](C(C)C)NC(=O)[C@H](CC(C)C)NC(=O)[C@H](CC(N)=O)NC(=O)[C@H](C)NC(=O)[C@H](CSSC[C@H](NC(=O)[C@H](CC(=O)O)NC(=O)[C@H](CC(N)=O)NC(=O)CN)C(=O)N[C@@H](CC(C)C)C(=O)NCC(=O)N[C@@H](Cc4ccccc4)C(=O)N[C@@H](Cc4c[nH]c5ccccc45)C(=O)N[C@@H](CO)C(=O)N[C@@H](C)C(=O)N3)NC2=O)C(=O)N[C@@H](CO)C(=O)N[C@@H](CO)C(=O)N[C@@H](CCCCN)C(=O)N[C@@H](Cc2c[nH]cn2)C(=O)N[C@@H](CCCCN)C(=O)N[C@@H](Cc2c[nH]c3ccccc23)C(=O)N1)C(=O)O` [Hs1a-FL], the pIC50 was 7.71 on hNav1.1; 7.09 on hNav1.2; 6.97 on hNav1.3; under 5.52 on hNav1.4; under 5.52 at hNav1.5; 7.72 at hNav1.6. At hNav1.7, the pIC50 was 7.57. Also, the “radiant efficiency, resected sciatic nerves” value in the series on mouse sciatic nerves [1] (4 nmol i.v. alone) was 1.6±0.3×10^5 [p/s/cm^2/sr]/[μW/cm^2]. Also, the “radiant efficiency, brain” value with mouse sciatic nerves [1] (4 nmol i.v.) is 0.2±0.1×10^7 [p/s/cm^2/sr]/[μW/cm^2]. Moreover, in the series with mouse sciatic nerves [1] (4 nmol i.v.), the “radiant efficiency, kidney” value was 1.4±1.1×10^7 [p/s/cm^2/sr]/[μW/cm^2]. The “radiant efficiency, liver” value in the series with mouse sciatic nerves [1] (4 nmol i.v.) is 3.0±2.0×10^7 [p/s/cm^2/sr]/[μW/cm^2]. In addition, the “radiant efficiency, spleen” value in the series with mouse sciatic nerves [1] (4 nmol i.v.) is 0.8±0.5×10^7 [p/s/cm^2/sr]/[μW/cm^2]. Besides, the “radiant efficiency, resected sciatic nerves, co-injection (blocking)” value in the series with mouse sciatic nerves [1] (setting [3]) was 0.09±0.03×10^5 [p/s/cm^2/sr]/[μW/cm^2]. Besides, the “signal in sciatic nerve sections” value in the series with mouse sciatic nerves [2] (4 nmol i.v. alone) is listed as “confirmed the presence of Hs1a-FL signal”. The “signal in sciatic nerve sections, blocked mice” value in the series with mouse sciatic nerves [2] (setting [3]) is reported as “No signal was detected”.
Compound `CC(C)C[C@H](NC(=O)[C@H](CCCCN)NC(=O)CNC(=O)[C@H](CCCCN)NC(=O)[C@@H]1CSSC[C@@H]2NC(=O)[C@H](CCCCN)NC(=O)[C@H](CC(=O)O)NC(=O)[C@H](CC(N)=O)NC(=O)[C@H](CCCCN)NC(=O)[C@@H]3CCCN3C(=O)[C@H](CC(N)=O)NC(=O)[C@@H]3CSSC[C@H](NC(=O)[C@H](C(C)C)NC(=O)[C@H](CC(C)C)NC(=O)[C@H](CC(N)=O)NC(=O)[C@H](C)NC(=O)[C@H](CSSC[C@H](NC(=O)[C@H](CC(=O)O)NC(=O)[C@H](CC(N)=O)NC(=O)CN)C(=O)N[C@@H](CC(C)C)C(=O)NCC(=O)N[C@@H](Cc4ccccc4)C(=O)N[C@@H](Cc4c[nH]c5ccccc45)C(=O)N[C@@H](CO)C(=O)N[C@@H](C)C(=O)N3)NC2=O)C(=O)N[C@@H](CO)C(=O)N[C@@H](CO)C(=O)N[C@@H](CCCCN)C(=O)N[C@@H](Cc2c[nH]cn2)C(=O)N[C@@H](CCCCN)C(=O)N[C@@H](Cc2c[nH]c3ccccc23)C(=O)N1)C(=O)O` [Hs1a] gave a pIC50 against hERG of under 5.52.

These data come from patent publication US20220089663A1, “PROTEINS AND FLUOROPHORE-CONTAINING COMPOUNDS SELECTIVE FOR NaV1.7” (MEMORIAL SLOAN KETTERING CANCER CENTER, priority 2019, published 2022).
